Source: US5750754A, “Heterocyclic compounds” (Zeneca Limited, priority 1993, dated 1998)
Structures can show the parent of a compound that is named as a salt.

Tests used:
[1] = target: T1, purified human platelet fibrinogen receptor (GPIIb/IIIa) (Homo sapiens, UniProt P05106+P08514); experiment: Test (b): GPIIb/IIIa ELISA, inhibition of biotinylated fibrinogen binding; details: purified human platelet GPIIb/IIIa, ELISA; read-out: Test (b): pIC50 (-log(IC50)), 50% inhibition of biotinylated fibrinogen binding to GPIIb/IIIa (converted)
T1 construct: is isolated from human platelet lysates; from tissue
In short: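 Inhibition of biotinylated fibrinogen ([…]) binding to immobilised human platelet fibrinogen receptor, purified by KYGRGDS peptide affinity chromatography, was measured after 2 h at 30 °C. Readout: streptavidin–biotin-HRP colour with TMB at […]; value expressed as pIC50.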

[2] = target: T2, human, citrated, platelet-rich plasma (Homo sapiens, UniProt P05106+P08514); experiment: Test (a): inhibition of ADP stimulated platelet aggregation (Born); type: cell-based; details: ADP induced aggregation of human platelet-rich plasma; read-out: Test (a): pA2 value indicating potency of platelet aggregation inhibition (converted)
T2 construct: aggregating human, citrated, platelet-rich plasma; endogenous in cells; host or cells: human platelets in citrated platelet-rich plasma
In short: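 pA2 calculated by comparing ADP EC50-type (50% response) values in presence and absence of compound, averaged across concentrations (generally 10-^5 M to 10-^10 M). Aggregation (Born) induced by ADP in citrated human platelet-rich plasma, giving dose-response curves.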

T1 sequence (P08514 32-887 limits assumed): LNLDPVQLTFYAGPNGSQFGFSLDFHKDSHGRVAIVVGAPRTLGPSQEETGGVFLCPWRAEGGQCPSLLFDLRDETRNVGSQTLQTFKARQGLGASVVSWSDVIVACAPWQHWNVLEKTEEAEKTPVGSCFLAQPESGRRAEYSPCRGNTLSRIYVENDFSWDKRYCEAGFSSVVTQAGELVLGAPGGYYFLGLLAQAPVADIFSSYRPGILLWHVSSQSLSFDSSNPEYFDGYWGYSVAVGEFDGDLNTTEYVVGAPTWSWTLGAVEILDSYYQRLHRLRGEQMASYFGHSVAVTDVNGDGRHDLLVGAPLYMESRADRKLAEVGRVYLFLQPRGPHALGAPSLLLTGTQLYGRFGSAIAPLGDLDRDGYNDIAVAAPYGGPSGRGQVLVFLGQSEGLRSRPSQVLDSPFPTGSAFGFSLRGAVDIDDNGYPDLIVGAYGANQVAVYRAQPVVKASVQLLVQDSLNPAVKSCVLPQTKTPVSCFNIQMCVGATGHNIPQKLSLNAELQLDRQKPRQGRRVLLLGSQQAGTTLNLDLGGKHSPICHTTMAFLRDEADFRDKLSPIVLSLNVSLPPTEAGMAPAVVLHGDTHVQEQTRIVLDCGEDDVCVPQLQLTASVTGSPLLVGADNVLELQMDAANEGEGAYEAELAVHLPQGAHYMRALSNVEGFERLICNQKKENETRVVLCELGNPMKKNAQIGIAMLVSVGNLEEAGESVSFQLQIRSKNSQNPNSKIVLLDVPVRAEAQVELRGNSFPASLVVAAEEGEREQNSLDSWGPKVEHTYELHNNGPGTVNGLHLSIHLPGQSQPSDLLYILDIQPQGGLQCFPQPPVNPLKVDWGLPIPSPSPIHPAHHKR
T1 sequence (P08514 891-1039 limits assumed): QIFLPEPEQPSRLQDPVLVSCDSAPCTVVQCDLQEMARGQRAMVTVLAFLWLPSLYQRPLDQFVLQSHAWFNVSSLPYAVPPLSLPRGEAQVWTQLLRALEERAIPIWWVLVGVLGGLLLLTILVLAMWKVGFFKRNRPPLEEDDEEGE
T1 sequence (P05106 27-788): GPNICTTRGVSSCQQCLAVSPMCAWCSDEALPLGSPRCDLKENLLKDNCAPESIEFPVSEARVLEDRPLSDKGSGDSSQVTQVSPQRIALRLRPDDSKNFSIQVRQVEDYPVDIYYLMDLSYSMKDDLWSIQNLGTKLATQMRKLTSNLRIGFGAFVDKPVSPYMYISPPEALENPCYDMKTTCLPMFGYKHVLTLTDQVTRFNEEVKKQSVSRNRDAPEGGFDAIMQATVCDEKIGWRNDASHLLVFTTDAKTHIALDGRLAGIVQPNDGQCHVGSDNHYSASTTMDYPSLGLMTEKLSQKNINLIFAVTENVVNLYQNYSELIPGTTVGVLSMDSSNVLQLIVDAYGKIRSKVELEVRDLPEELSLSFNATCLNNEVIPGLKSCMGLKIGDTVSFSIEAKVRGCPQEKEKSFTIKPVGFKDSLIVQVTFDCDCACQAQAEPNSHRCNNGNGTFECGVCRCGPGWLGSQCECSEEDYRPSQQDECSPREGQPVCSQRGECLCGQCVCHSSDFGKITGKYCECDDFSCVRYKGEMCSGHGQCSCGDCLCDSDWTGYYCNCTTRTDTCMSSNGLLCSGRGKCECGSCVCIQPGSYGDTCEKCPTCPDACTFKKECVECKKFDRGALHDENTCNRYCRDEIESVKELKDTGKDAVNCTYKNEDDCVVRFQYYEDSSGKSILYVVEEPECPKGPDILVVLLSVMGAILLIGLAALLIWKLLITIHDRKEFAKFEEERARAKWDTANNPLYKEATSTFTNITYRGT
T2 sequence (P08514 32-887 limits assumed): as the sequence (P08514 32-887 limits assumed) above
T2 sequence (P08514 891-1039 limits assumed): as the sequence (P08514 891-1039 limits assumed) above
T2 sequence (P05106 27-788): as the sequence (P05106 27-788) above

Row | IC50 [1] | Kb [2] | SMILES
1 | 5010 nM | 5010 nM | NC(=O)COc1ccc(C(=O)CN2CCN(c3ccncc3)CC2)cc1 [Example 142, 4-[2-[4-(4-Pyridyl)piperazin-1-yl]acetyl]phenoxyacetamide]
2 | 31600 nM | 63100 nM | O=C(O)c1ccc(C(=O)CN2CCN(c3ccncc3)CC2)cc1 [Example 132, Sodium 4-[2-[4-(4-pyridyl)piperazin-1-yl]acetyl]benzoate]
3 | 1260 nM | 5010 nM | O=C(O)CC1CCN(C(=O)CN2CCN(c3ccncc3)CC2)CC1 [Example 30, 2-[1-[2-[4-(4-Pyridyl)piperazin-1-yl]acetyl]piperidin-4-yl]acetic acid]
4 | > 100000 nM | 3160 nM | COC(=O)COc1ccc(OC2CCN(c3ccncc3)CC2)cc1 [Example 155, Methyl 4-[1-(4-pyridyl)piperidin-4-yl]oxyphenoxyacetate]
5 | 79.4 nM | 316 nM | O=C(O)COc1ccc(C(=O)CCN2CCN(c3ccncc3)CC2)cc1 [Example 8, 4-[3-[4-(4-Pyridyl)piperazin-1-yl]propanoyl]phenoxyacetic acid]
6 | 2 nM | 39.8 nM | O=C(O)[C@H](Cc1ccc(OCCC2CCN(c3ccncc3)CC2)cc1)NS(=O)(=O)Cc1ccccc1 [Example 89, 2-S-(Benzylsulphonylamino)-3-[4-[2-[1-(4-pyridyl)piperidin-4-yl]ethoxy]phenyl]propionic acid]
7 | 631 nM | 1260 nM | COC(=O)COc1ccc(C(=O)C(C)(C)N2CCN(c3ccncc3)CC2)cc1 [Example 175, Methyl 4-[2-[4-(4-pyridyl)piperazin-1yl]-2,2-dimethylacetyl]-phenoxyacetate]
8 | 15.8 nM | 794 nM | O=C(O)COc1ccc(OCCC2CCN(c3ccncc3)CC2)cc1 [Example 160, 4-[2-[1-(4-Pyridyl)piperidin-4-yl]ethoxy]phenoxyacetic acid]
9 | 3.98 nM | 12.6 nM | O=C(O)CCCOc1ccc(N2CCN(c3ccncc3)CC2)cc1 [Example 200, 4-[4-[4-(4-Pyridyl)piperazine-1-yl]phenoxy]butyric acid, hydrochloride salt]
10 | 3160 nM | 3980 nM | CCCCS(=O)(=O)NC(CC(=O)OC)c1ccc(OCC2CCN(c3ccncc3)CC2)cc1 (centres unmarked) [Example 97, Methyl 3-(n-butylsulphonylamino)-3-[4-[1-(4-pyridyl)piperidin-4-yl]-methoxyphenyl]propionate]
11 | 15800 nM | 3160 nM | COC(=O)CCNC(=O)c1ccc(N2CCN(c3ccncc3)CC2)cc1 [Example 56, Methyl 3-[4-[4-(4-pyridyl)piperazin-1-yl]]benzaminopropionate]
12 | 20000 nM | 1260 nM | COC(=O)COc1ccc(NC(=O)CC2CCN(c3ccncc3)CC2)cc1 [Example 165]
13 | 31.6 nM | 63.1 nM | O=C(O)CC(NC(=O)c1ccc(N2CCN(c3ccncc3)CC2)cc1)c1ccccc1 (centres unmarked) [Example 59, 3-[4-[4-(4-Pyridy)piperazin-1-yl]benzamido]-3-phenylpropionic acid]
14 | 2.51 nM | 1 nM | CS(=O)(=O)N[C@@H](Cc1ccc(OCCC2CCN(c3ccncc3)CC2)cc1)C(=O)O [Example 88, 2-S-(Methylsulphonylamino)-3-[4-[2-[1-(4-pyridyl)piperidin-4-yl]ethoxy]phenyl]propionic acid]
15 | 31600 nM | 31600 nM | O=C(CN1CCN(c2ccncc2)CC1)c1ccc(OCc2nnn[nH]2)cc1 [Example 141, 5-[4-[2-[4-(4-Pyridyl)piperazin-1-yl]acetyl]phenoxymethyl]tetrazole]
16 | 1580 nM | 20000 nM | O=C(O)COc1ccc(OC2CCN(c3ccncc3)CC2)cc1 [Example 156, 4-[1-(4-Pyridyl)piperidin-4-yl]oxyphenoxyacetic acid]
17 | 3.16 nM | 10 nM | Cc1ccc(S(=O)(=O)N[C@@H](Cc2ccc(OCCC3CCN(c4ccncc4)CC3)cc2)C(=O)O)cc1 [Example 90, Lithium 2-S-(4-methylphenylsulphonylamino)-3-[4-[2-[1-(4-pyridyl)piperidin-4-yl]ethoxy]phenyl]propionate]
18 | 20000 nM | 63100 nM | COC(=O)[C@H](Cc1ccccc1)NC(=O)c1ccc(N2CCN(c3ccncc3)CC2)cc1 [Example 190, N[4-[(4-Pyridyl)piperazin-1-yl]benzoyl]-L-phenylalanine, methyl ester]
19 | 1260 nM | 5010 nM | Cc1ccc(S(=O)(=O)NCc2ccc(CCN3CCN(c4ccncc4)CC3)cc2)cc1 [Example 186]
20 | 1260 nM | 501 nM | O=C(O)COc1ccc(C(=O)CN2CCC(=Cc3cnccc3N3CCCC3)C2)cc1 [Example 108, 4-[2-[3-[4-(1-Pyrrolidinyl)pyridin-3yl]methylidene]pyrrolidin-1-yl]-acetylphenoxyacetic acid]

Row | IC50 [1] | Kb [2] | SMILES
21 | > 100000 nM | > 100000 nM | COC(=O)COc1ccc(C(=O)CN2CCN(c3cc(C)nc4ccccc34)CC2)cc1 [Example 41, Methyl 4-[2-[4-(2-methyl-4-quinolinyl)piperazin-1-yl]acetyl]phenoxyacetate]
22 | 251 nM | 39800 nM | O=C(O)C[C@@H](NC(=O)c1ccc(N2CCN(c3ccncc3)CC2)cc1)C(=O)NCCc1ccccc1 [Example 193]
23 | 31600 nM | 10000 nM | CNC(=O)COc1ccc(C(=O)CN2CCN(c3ccncc3)CC2)cc1 [Example 143, 2-[4-[2-[4-(4-Pyridyl)piperazin-1-yl]acetyl]phenoxy]-N-methylacetamide]
24 | 251 nM | 501 nM | COC(=O)COc1ccc(C(=O)CN2CCN(c3ccncc3)CC2)cc1OCC(=O)OC [Example 3]
25 | 10 nM | 200 nM | CC(C)(C(=O)c1ccc(OCC(=O)O)cc1)N1CCN(c2ccncc2)CC1 [Example 176, 4-[2-[4-(4-Pyridyl)piperazin-1-yl]-2,2-dimethylacetyl]phenoxyacetic acid]
26 | 398 nM | 794 nM | O=C(O)COc1ccc(C(=O)NCC2CCN(c3ccncc3)CC2)cc1 [Example 168]
27 | 3.16 nM | 12.6 nM | CCCCC(=O)N[C@@H](Cc1ccc(OCCC2CCN(c3ccncc3)CC2)cc1)C(=O)O [Example 93, 2-S-(Pentanoylamino)-3-[4-[2-[1-(4-pyridyl)piperidin-4-yl]ethoxy]phenyl]propionic acid]
28 | 63.1 nM | 501 nM | O=C(O)COc1ccc2nc(N3CCN(c4ccncc4)CC3)ccc2c1 [Example 73, 2-[4-(4-Pyridyl)piperazin-1-yl]quinolin-6-yloxyacetic acid]
29 | 3980 nM | 15800 nM | COC(=O)CCCCc1ccc(CN2CCN(c3ccncc3)CC2)cc1 [Example 179, Methyl 5-[4-[4-(4-pyridyl)piperazin-1-yl]methylphenyl]pentanoate]
30 | 6310 nM | 5010 nM | CCCCS(=O)(=O)NC(CC1CCN(C(=O)CN2CCN(c3ccncc3)CC2)CC1)C(=O)O (racemic) [Example 111]
31 | 20000 nM | > 100000 nM | O=C(O)COC1CCCN(C(=O)CN2CCN(c3ccncc3)CC2)C1 (centres unmarked) [Example 104, 1[2-[4-(4-Pyridyl)piperazin-1yl]acetyl]piperidin-3-yloxyacetic acid]
32 | 3160 nM | 63.1 nM | CC(C)OC(=O)COc1ccc(C(=O)CN2CCN(c3ccncc3)CC2)cc1 [Example 137, iso-Propyl 4-[2-[4-(4-pyridyl)piperazin-1-yl]acetyl]phenoxyacetate]
33 | 1.26 nM | 79.4 nM | C=CC(COc1ccc(N2CCN(c3ccncc3)CC2)cc1)CC(=O)O (racemic) [Example 204, RS-4-[4-[4-(4-Pyridyl)piperazin-1-yl]phenoxy]-3-vinylbutyric acid, sodium salt]
34 | 5.01 to 10 nM | 158 to 398 nM | O=C(O)COc1ccc(C(=O)CC2CCN(c3ccncc3)CC2)cc1 [Example 174, 4-[2-[1-(4Pyridyl)piperidin-4-yl]acetyl]phenoxyacetic acid hydrochloride]
35 | 20 nM | 31.6 nM | O=C(O)COc1ccc(NC(=O)N2CCN(c3ccncc3)CC2)cc1 [Example 64, 4-[[4-(4-Pyridyl)piperazin-1-yl]carboxamido]phenoxyacetic acid]
36 | 501 nM | 31600 nM | CN(C)c1ccncc1CCCOc1ccc(OCCCC(=O)O)cc1 [Example 224, 4-[4-[3-(4-dimethylaminopyrid-3-yl)propyloxy]phenoxy]butyric acid]
37 | 200 nM | 631 nM | O=C(O)C1CCN(C(=O)c2ccc(N3CCN(c4ccncc4)CC3)cc2)CC1 [Example 234, 4-[(4-Pyridyl)piperazin-1-yl]benzoylisonipecotic acid]
38 | 1 nM | 2 nM | CCCCS(=O)(=O)N[C@@H](Cc1ccc(OCCC2CCN(c3ccncc3)CC2)cc1)C(=O)O [Example 36, 2-S-(n-Butylsulphonylamino)-3-[4-[2-[1-(4-pyridyl)piperidin-4-yl]ethoxy]phenyl]propionic acid]
39 | 3980 nM | 126 to 200 nM | CCCCS(=O)(=O)NCc1ccc(C(=O)CN2CCN(c3ccncc3)CC2)cc1 [Example 22, N-[4-[2-[4-(4-Pyridyl)piperazin-1-yl]acetyl]phenyl]methyl-1-butanesulphonamide]
40 | 7940 nM | 31600 nM | CC(C)(C)OC(=O)COC1CCCN(C(=O)CN2CCN(c3ccncc3)CC2)C1 (centres unmarked) [Example 103, Tert-butyl 1-[2-[4-(4-pyridyl)piperazin-1in-1-yl]acetyl]piperidin-3-yloxyacetate]
